Like-named read-outs stand apart in the source and are kept apart here.
What was measured:
Type in all cases: cell-based
HepG2 parental = assay: In vitro cell viability (CellTiter-Glo), HepG2 parental; settings: 96 hours
Protocol: HEK293 cells containing empty pCLPCx vector (HEK293 empty), HEK293 cells stably over-expression WFS1 (HEK293 WFS1), HepG2, and HepG2 cells where WFS1 was depleted via CRISPR/Cas9 (HepG2 WFS1 KO) cells were plated into 96-well black plates (Corning, product #3904) in 100 microliters of complete DMEM cell culture media [DMEM (Life Technologies, product #11960-051) media supplemented with 10% FBS (Hyclone, catalog #SH30071.03), antimycotic/antibiotic (Life Technologies, product #15240-062), and Glutamax (Life Technologies, product #35050-061)] at 1,000 (HEK293) or 5,000 (HepG2) cells per well. Cells were allowed to attach and grow overnight, after which compounds are added at various concentrations. Cell viability was assessed 96 hrs after compound addition with CellTiter-Glo reagent (Promega, catalog #G7570) according to manufacturer's protocol and measurement on a Pherastar luminescence plate reader (BMG Labtech).
To determine the effect of WFS1 depletion on compound mediated inhibition of cell viability, parental HepG2 cells and HepG2 cells where WFS1 was deleted by CRISPR/Cas9 were exposed to increasing concentrations of either Compound 136 or Compound 253 for 96 hours after which time viability was determined using Cell Titer Glo reagent (Promega). […] The IC50s for the viability of both the HepG2 parental and WFS1 knockout cells are summarized in Table 47: A<0.5 μM; 0.5 μM≤<2.0 μM; 2.0 μM≤C<10.0 μM; D≥[…].

[1] = tested on: Hek293 WFS1 over-expressor; assay: In vitro cell viability (CellTiter-Glo), Hek293 WFS1 over-expressor
Method in brief: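 HEK293 cells stably overexpressing WFS1 via retroviral transduction (puromycin-selected), with empty-vector cells as counterpart, plated 1,000/well. Compounds added at various concentrations after overnight attachment; viability by CellTiter-Glo luminescence after 96 h, reported as IC50.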

HepG2 XBP1(u)-Luc cells = assay: HepG2 XBP1 reporter assay; settings: 6 h
Method in brief: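 Reporter cells are HepG2 stably carrying unspliced XBP1 fused to firefly luciferase, which becomes in-frame after IRE1alpha-mediated splicing. SteadyGlo luminescence was normalized to DMSO-treated cells for IC50 calculation.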

[2] = Homo sapiens, read-out: HepG2 viability
[3] = Homo sapiens, HEK293, Hek293 WFS1 over-expressing cells, read-out: Hek293 WFS1 viability
[4] = Hek293 WFS1 over-expressing cells, read-out: Hek293 WFS1 viability

Cc1nc(N[C@H]2C[C@@H](Sc3ccc(F)cc3)C2)nc2c1N(C)C(=O)[C@H](C)N2C [Compound 305, (7S)-2-((cis-3-((4-fluorophenyl)thio)cyclobutyl)amino)-4,5,7,8-tetramethyl-7,8-dihydropteridin-6(5H)-one]
IC50 (HepG2 parental; [2]): ≥ 10 µM | IC50 [1, 3]: 0.06 to 0.6 µM | IC50 (HepG2 XBP1(u)-Luc cells; Homo sapiens): 2 to 10 µM

Cc1nc(N[C@H]2C[C@@H](COc3ccc(C(F)(F)F)cn3)C2)nc2c1NC(=O)[C@H](C)N2C [Compound 356, (7S)-4,7,8-trimethyl-2-((cis-3-(((5-(trifluoromethyl)pyridin-2-yl)oxy)methyl)cyclobutyl)amino)-7,8-dihydropteridin-6(5H)-one]
IC50 (HepG2 parental; [2]): ≥ 10 µM | IC50 [1, 3]: < 0.06 µM | IC50 (HepG2 XBP1(u)-Luc cells; Homo sapiens): < 0.6 µM

Cc1nc(N[C@@H]2CC[C@@H](n3ccc(C(F)(F)F)n3)C2)nc2c1NC(=O)[C@H](C)N2C (single isomer, unassigned) [Compound 311]
IC50 (HepG2 parental; [2]): ≥ 10 µM | IC50 [1, 3]: < 0.06 µM | IC50 (HepG2 XBP1(u)-Luc cells; Homo sapiens): < 0.6 µM

CC[C@H]1C(=O)Nc2cnc(NCc3cnn(Cc4ccc(F)cc4)c3)nc2N1C [Compound 9, (7S)-7-ethyl-2-(((1-(4-fluorobenzyl)-1H-pyrazol-4-yl)methyl)amino)-8-methyl-7,8-dihydropteridin-6(5H)-one]
IC50 (HepG2 parental; [2]): ≥ 10 µM | IC50 [1, 3]: 0.06 to 0.6 µM | IC50 (HepG2 XBP1(u)-Luc cells; Homo sapiens): 0.6 to 2 µM

CN1C(=O)C(C)(C)N(C)c2nc(NCc3cnn(Cc4cccnc4C(F)(F)F)c3)ncc21 [Compound 237, 5,7,7,8-Tetramethyl-2-(((1-((2-(trifluoromethyl)pyridin-3-yl)methyl)-1H-pyrazol-4-yl)methyl)amino)-7,8-dihydropteridin-6(5H)-one]
IC50 (HepG2 parental; [2]): ≥ 10 µM | IC50 [1, 3]: 0.06 to 0.6 µM | IC50 (HepG2 XBP1(u)-Luc cells; Homo sapiens): 0.6 to 2 µM

Cc1ncc(Cn2cc(CNc3nc(C)c4c(n3)N(C)[C@@H](C)C(=O)N4)cn2)cn1 [Compound 163, (7S)-4,7,8-trimethyl-2-(((1-((2-methylpyrimidin-5-yl)methyl)-1H-pyrazol-4-yl)methyl)amino)-7,8-dihydropteridin-6(5H)-one]
IC50 (HepG2 parental; [2]): ≥ 10 µM | IC50 [1, 3]: ≥ 3 µM | IC50 (HepG2 XBP1(u)-Luc cells; Homo sapiens): ≥ 10 µM

Cc1nc(NCc2cnn(Cc3ccc(F)nc3)c2)nc2c1NC(=O)[C@H](C1CC1)N2C [Compound 421, (7S)-7-cyclopropyl-2-(((1-((6-fluoropyridin-3-yl)methyl)-1H-pyrazol-4-yl)methyl)amino)-4,8-dimethyl-7,8-dihydropteridin-6(511)-one]
IC50 (HepG2 parental; read-out: HepG2 viability): 0.5 to 2 µM | IC50 [1, 4]: 0.06 to 0.6 µM | IC50 (HepG2 XBP1(u)-Luc cells): < 0.6 µM

Cc1nc(NCc2cn(Cc3ccc(C(F)(F)F)nc3)nc2Br)nc2c1NC(=O)[C@H](C)N2C [Compound 412, (S)-2-(((3-bromo-1-((6-(trifluoromethyl)pyridin-3-yl)methyl)-1H-pyrazol-4-yl)methyl)amino)-4,7,8-trimethyl-7,8-dihydropteridin-6(5H)-one]
IC50 (HepG2 parental; [2]): 2 to 10 µM | IC50 [1, 3]: 0.06 to 0.6 µM | IC50 (HepG2 XBP1(u)-Luc cells; Homo sapiens): < 0.6 µM

CC(=O)N(Cc1cnn(Cc2ccc(C(F)(F)F)nc2)c1)c1nc(C)c2c(n1)N(C)[C@@H](C)C(=O)N2 [Compound 405, (7S)-N-((1-((6-(trifluoromethyl)pyridin-3-yl)methyl)-1H-pyrazol-4-yl)methyl)-N-(4,7,8-trimethyl-6-oxo-5,6,7,8-tetrahydropteridin-2-yl)acetamide]
IC50 (HepG2 parental; [2]): ≥ 10 µM | IC50 [1, 3]: ≥ 3 µM | IC50 (HepG2 XBP1(u)-Luc cells; Homo sapiens): ≥ 10 µM

Cc1nc(NCc2cnn(Cc3ccc(C(F)(F)F)nc3)c2)nc2c1NC(=O)[C@H](C)N2C [Compound 136, (7S)-4,7,8-trimethyl-2-(((1-((6-(trifluoromethyl)pyridin-3-yl)methyl)-111-pyrazol-4-yl)methyl)amino)-7,8-dihydropteridin-6(5H)-one]
IC50 (HepG2 parental; read-out: HepG2 viability): 0.5 to 2 µM | IC50 (HepG2 parental; cell viability, Cell Titer Glo, read-out: IC50): 0.33 µM | IC50 (HepG2 parental; cell viability, read-out: IC50 class): < 0.5 µM | IC50 [1, 4]: < 0.06 µM | IC50 ([1]; cell viability, Hek293 WFS1 over-expressor, read-out: IC50): 0.03 µM | IC50 ([1]; cell viability, Hek293 WFS1 over-expressor, read-out: IC50 class): < 0.06 µM | reduction in the IC50 on over-expression of WFS1 in Hek293 cells ([1]; cell viability, WFS1 over-expressor vs empty vector): > 1000 fold | IC50 (HepG2 XBP1(u)-Luc cells): 0.6 to 2 µM

CCOc1ccc(CCn2cc(CNc3ncc4c(n3)N(C)[C@@H](C)C(=O)N4)cn2)cc1 [Compound 121, (7S)-2-(((1-(4-ethoxyphenethyl)-1H-pyrazol-4-yl)methyl)amino)-7,8-dimethyl-7,8-dihydropteridin-6(5H)-one]
IC50 (HepG2 parental; [2]): ≥ 10 µM | IC50 [1, 3]: 0.6 to 3 µM | IC50 (HepG2 XBP1(u)-Luc cells; Homo sapiens): 2 to 10 µM

Cc1ncc(Cn2cc(CNc3nc(C)c4c(n3)N(C)[C@@H](C(C)C)C(=O)N4)cn2)cc1F [Compound 425, (7S)-2-(((1-((5-fluoro-6-methylpyridin-3-yl)methyl)-1H-pyrazol-4-yl)methyl)amino)-7-isopropyl-4,8-dimethyl-7,8-dihydropteridin-6(5H)-one]
IC50 (HepG2 parental; [2]): 0.5 to 2 µM | IC50 [1, 3]: 0.06 to 0.6 µM | IC50 (HepG2 XBP1(u)-Luc cells; Homo sapiens): 0.6 to 2 µM

Cc1nc(NCc2cnn(CCC3CCOCC3)c2)nc2c1NC(=O)[C@H](C)N2C [Compound 115, (7S)-4,7,8-trimethyl-2-(((1-(2-(tetrahydro-2H-pyran-4-yl)ethyl)-1H-pyrazol-4-yl)methyl)amino)-7,8-dihydropteridin-6(5H)-one]
IC50 (HepG2 parental; [2]): ≥ 10 µM | IC50 [1, 3]: 0.6 to 3 µM | IC50 (HepG2 XBP1(u)-Luc cells; Homo sapiens): ≥ 10 µM

Cc1nc(N[C@H]2C[C@H](Sc3ccc(F)cc3)C2)nc2c1N(C)C(=O)[C@H](C)N2C [Compound 307, (7S)-2-((trans-3-((4-fluorophenyl)thio)cyclobutyl)amino)-4,5,7,8-tetramethyl-7,8-dihydropteridin-6(5H)-one]
IC50 (HepG2 parental; [2]): 2 to 10 µM | IC50 [1, 3]: 0.06 to 0.6 µM | IC50 (HepG2 XBP1(u)-Luc cells; Homo sapiens): 0.6 to 2 µM

Cc1nc(NCc2cnn(Cc3ccc(Cl)nc3)c2)nc2c1NC(=O)[C@H](C(C)C)N2C [Compound 409, (7S)-2-(((1-((6-chloropyridin-3-yl)methyl)-1H-pyrazol-4-yl)methyl)amino)-7-isopropyl-4,8-dimethyl-7,8-dihydropteridin-6(5H)-one]
IC50 (HepG2 parental; [2]): < 0.5 µM | IC50 [1, 3]: < 0.06 µM | IC50 (HepG2 XBP1(u)-Luc cells; Homo sapiens): < 0.6 µM

Cc1nc(NCc2cnn(CCc3ccc(F)cc3)c2)nc2c1NC(=O)[C@H](C)N2C [Compound 6, (7S)-2-(((1-(4-fluorophenethyl)-1H-pyrazol-4-yl)methyl)amino)-4,7,8-trimethyl-7,8-dihydropteridin-6(5H)-one]
IC50 (HepG2 parental; [2]): 2 to 10 µM | IC50 [1, 3]: 0.06 to 0.6 µM | IC50 (HepG2 XBP1(u)-Luc cells; Homo sapiens): 0.6 to 2 µM

Cc1nc(N[C@H]2C[C@H](Oc3ccnc(C(F)(F)F)c3)C2)nc2c1NC(=O)[C@H](C)N2C [Compound 335, (7S)-4,7,8-trimethyl-2-((trans-3-((2-(trifluoromethyl)pyridin-4-yl)oxy)cyclobutyl)amino)-7,8-dihydropteridin-6(5H)-one]
IC50 (HepG2 parental; [2]): 2 to 10 µM | IC50 [1, 3]: < 0.06 µM | IC50 (HepG2 XBP1(u)-Luc cells; Homo sapiens): < 0.6 µM

Cc1nc(NCc2cnn(Cc3ccc(F)cc3)c2)nc2c1NC(=O)C1(CC1)N2 [Compound 222, 2′-(((1-(4-fluorobenzyl)-1H-pyrazol-4-yl)methyl)amino)-4′-methyl-5′,8′-dihydro-6′H-spiro[cyclopropane-1,7′-pteridin]-6′-one]
IC50 (HepG2 parental; [2]): ≥ 10 µM | IC50 [1, 3]: ≥ 3 µM | IC50 (HepG2 XBP1(u)-Luc cells; Homo sapiens): ≥ 10 µM

Cc1nc(N[C@H]2CC[C@H](n3ccc(C(F)(F)F)n3)C2)nc2c1NC(=O)[C@H](C)N2C (single isomer, unassigned) [Compound 310]
IC50 (HepG2 parental; [2]): ≥ 10 µM | IC50 [1, 3]: 0.06 to 0.6 µM | IC50 (HepG2 XBP1(u)-Luc cells; Homo sapiens): < 0.6 µM

Cc1nc(N[C@H]2C[C@@H](Oc3cc(F)c(F)c(F)c3)C2)nc2c1NC(=O)[C@H](C)N2C [Compound 247, (7S)-4,7,8-trimethyl-2-((cis-3-(3,4,5-trifluorophenoxy)cyclobutyl)amino)-7,8-dihydropteridin-6(5H)-one]
IC50 (HepG2 parental; [2]): 2 to 10 µM | IC50 [1, 3]: ≥ 3 µM | IC50 (HepG2 XBP1(u)-Luc cells; Homo sapiens): ≥ 10 µM
